Series [1] deals with T1, κOP (Homo sapiens, UniProt P41145). The format is binding. As to conditions: for Ki: read-out: Binding Ki. Also on record: membranes isolated.
Series [2] has as its system wildtype mice. The experiment in a line: Seizure assay (modified racine scale).
For series [3], the system named is δOP KO mice. The experiment in a line: Seizure assay in δOP KO mice. As to conditions: 30 mg·kg^−1 i.p.
In series [4] the test system is male, WT mice. In words: Conditioned place preference (brief and extended). Particulars: 10 mg·kg^−1.
Series [5] concerns C57Bl/6 wild-type mice. The experiment in a line: Two-bottle choice alcohol paradigm (drinking in the dark, 10% ethanol vs water). The series is classed as in vivo, mouse. As to conditions: for alcohol intake, in words: systemic (i.p.) injection, modified 2-bottle choice, male C57BL/6 mice, FIG. 1.
The target in series [6] is T2, HA-mouse μOP (Mus musculus, UniProt P42866).
T2 construct: HA (N); expressed in transfected cells; host or cells: HEK cells, transient transfection together with pGloSensor22F
T2 sequence (P42866 whole entry): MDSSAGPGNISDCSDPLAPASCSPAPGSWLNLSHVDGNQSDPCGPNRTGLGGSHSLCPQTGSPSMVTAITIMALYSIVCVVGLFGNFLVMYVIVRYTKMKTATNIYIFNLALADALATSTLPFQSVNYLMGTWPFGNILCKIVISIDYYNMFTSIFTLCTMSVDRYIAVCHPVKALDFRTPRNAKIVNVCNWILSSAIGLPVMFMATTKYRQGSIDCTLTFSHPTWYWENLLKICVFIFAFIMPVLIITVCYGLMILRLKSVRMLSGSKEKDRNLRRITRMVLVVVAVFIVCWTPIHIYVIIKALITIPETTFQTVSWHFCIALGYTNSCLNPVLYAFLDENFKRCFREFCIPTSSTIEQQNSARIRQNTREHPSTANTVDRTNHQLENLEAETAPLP
In words: GloSensor cAMP inhibition assay in transfected HEK cells. The format is cell-based. As to conditions: for cAMP α: efficacy normalized to positive control DAMGO; for IC50 / cAMP pIC50: inhibition of forskolin-induced cAMP.

Series [7] addresses T3, μOP (Homo sapiens, UniProt P35372). The format is binding. Also on record: membranes isolated. As to conditions: [3H]DAMGO, CHO membranes.
Series [8] addresses T4, FLAG-mouse δOP (Mus musculus, UniProt P32300).
T4 construct: FLAG (N); expressed in transfected cells; host or cells: HEK cells (HEK-293), transient transfection together with pGloSensor22F
The experiment in a line: GloSensor cAMP inhibition assay in transfected HEK cells. The format is cell-based. As to conditions: for cAMP α: efficacy normalized to positive control Leu-Enk; for IC50 / cAMP pIC50: inhibition of forskolin-induced cAMP.

Series [9] addresses T5, FLAG-mouse κOP (Mus musculus, UniProt P33534).
T5 construct: FLAG (N); expressed in transfected cells; host or cells: HEK cells, transient transfection together with pGloSensor22F
The series is classed as cell-based. As to conditions: for IC50: read-out: cAMP IC50.

Series [10] deals with WT mice. As to conditions: 7-hydroxymitragynine dose not stated; paynantheine 10 mg·kg^−1; cited from earlier work.
In series [11] the test system is δOP KO mice. In words: Two-bottle choice alcohol paradigm in δOP KO mice. The format is in vivo, mouse. Particulars: 10 mg·kg^−1; male δOP KO mice.
Series [12] relates to male mice. In words: Tail flick thermal nociception assay. The format is in vivo, mouse.
Series [13] concerns WT mice. In words: Locomotor evaluation. Particulars: 10 mg·kg^−1.
Series [14] concerns the target T6, δOP (Homo sapiens, UniProt P41143). The series is classed as binding. Also on record: membranes isolated. Particulars: for Binding pKi / Ki: [3H]DPDPE, CHO membranes; for Ki: read-out: Binding Ki.
Series [15] deals with C57Bl/6 wild-type mice. As to conditions: cited from earlier work; for alcohol intake, in words (previous reports): 10 mg·kg^−1; for alcohol consumption, in words (previous reports): dose not stated.
For series [16], the system named is male, WT mice. As to conditions: dose not stated; cited from earlier work.
Series [17] concerns the target T6, δOP. The format is cell-based.
Series [18] deals with T3, μOP. The format is cell-based. As to conditions: normalized to positive control DAMGO.
Series [19] concerns δOP KO mice. The experiment in a line: Accelerating rotarod test in δOP KO mice. For orientation: In the rotarod test animals must keep their balance on a rotating rod.
Series [20] relates to WT mice. In words: Accelerating rotarod test. Particulars: 30 mg·kg^−1 i.p.
In series [21] the target is T1, κOP. The format is cell-based.

“Also recorded” adds a separate entry of the source. Read-outs that look alike come from different tables or passages of the source.

T5 sequence (P33534 whole entry): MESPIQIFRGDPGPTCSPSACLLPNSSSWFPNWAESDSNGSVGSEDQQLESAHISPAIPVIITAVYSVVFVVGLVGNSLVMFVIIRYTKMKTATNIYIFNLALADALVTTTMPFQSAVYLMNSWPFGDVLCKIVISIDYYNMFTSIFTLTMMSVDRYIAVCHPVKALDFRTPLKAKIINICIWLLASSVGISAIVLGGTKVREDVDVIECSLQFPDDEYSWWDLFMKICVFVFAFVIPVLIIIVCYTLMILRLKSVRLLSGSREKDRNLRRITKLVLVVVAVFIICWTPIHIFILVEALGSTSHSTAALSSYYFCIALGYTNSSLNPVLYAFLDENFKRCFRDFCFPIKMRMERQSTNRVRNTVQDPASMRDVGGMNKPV
T4 sequence (P32300 whole entry): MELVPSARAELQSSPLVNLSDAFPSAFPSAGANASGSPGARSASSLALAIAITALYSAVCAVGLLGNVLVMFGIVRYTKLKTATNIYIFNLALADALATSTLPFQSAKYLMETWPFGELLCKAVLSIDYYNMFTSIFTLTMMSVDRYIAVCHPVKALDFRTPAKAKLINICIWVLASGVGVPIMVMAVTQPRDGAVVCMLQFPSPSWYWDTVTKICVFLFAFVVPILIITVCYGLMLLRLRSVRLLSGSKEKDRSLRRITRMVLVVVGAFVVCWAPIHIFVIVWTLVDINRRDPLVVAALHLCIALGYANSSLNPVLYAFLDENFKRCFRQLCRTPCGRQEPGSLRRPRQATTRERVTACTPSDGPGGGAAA
T1 sequence (P41145 whole entry): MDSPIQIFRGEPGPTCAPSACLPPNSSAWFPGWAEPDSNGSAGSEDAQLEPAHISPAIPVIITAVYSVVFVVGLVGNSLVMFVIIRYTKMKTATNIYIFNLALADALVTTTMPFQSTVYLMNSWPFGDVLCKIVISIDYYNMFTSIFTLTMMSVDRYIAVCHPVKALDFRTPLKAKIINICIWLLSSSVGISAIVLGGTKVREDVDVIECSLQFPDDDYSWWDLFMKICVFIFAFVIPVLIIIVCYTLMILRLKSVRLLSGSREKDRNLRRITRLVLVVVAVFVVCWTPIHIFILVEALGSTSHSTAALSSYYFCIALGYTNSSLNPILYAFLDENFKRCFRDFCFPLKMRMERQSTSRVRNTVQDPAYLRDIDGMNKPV
T6 sequence (P41143 whole entry): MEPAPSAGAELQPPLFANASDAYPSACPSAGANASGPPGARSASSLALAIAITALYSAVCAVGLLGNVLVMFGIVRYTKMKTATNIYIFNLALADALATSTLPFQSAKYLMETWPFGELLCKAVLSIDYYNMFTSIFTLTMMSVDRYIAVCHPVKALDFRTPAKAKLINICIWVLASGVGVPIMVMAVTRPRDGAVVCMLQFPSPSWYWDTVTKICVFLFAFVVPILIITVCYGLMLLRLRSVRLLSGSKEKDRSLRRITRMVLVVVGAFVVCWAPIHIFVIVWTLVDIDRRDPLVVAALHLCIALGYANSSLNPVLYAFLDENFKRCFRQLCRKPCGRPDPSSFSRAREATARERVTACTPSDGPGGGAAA
T3 sequence (P35372 whole entry): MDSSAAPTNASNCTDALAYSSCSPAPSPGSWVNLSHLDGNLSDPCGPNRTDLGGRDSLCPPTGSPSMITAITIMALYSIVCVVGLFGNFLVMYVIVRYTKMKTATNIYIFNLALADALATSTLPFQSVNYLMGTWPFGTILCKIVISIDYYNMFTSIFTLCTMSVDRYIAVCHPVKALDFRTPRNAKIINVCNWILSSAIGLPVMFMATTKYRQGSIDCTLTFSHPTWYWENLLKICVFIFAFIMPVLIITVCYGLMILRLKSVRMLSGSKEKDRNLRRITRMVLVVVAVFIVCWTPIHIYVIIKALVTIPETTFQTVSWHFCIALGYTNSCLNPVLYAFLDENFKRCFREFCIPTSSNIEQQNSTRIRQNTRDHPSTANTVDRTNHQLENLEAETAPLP

Broadly, the Ki is a dissociation constant, usually derived from enzyme kinetics or from competition with a known ligand. As a reminder, the IC50 is the point on the concentration scale where inhibition reaches its midpoint. As to `C=C[C@H]1CN2CCc3c([nH]c4cccc(OC)c34)[C@@H]2C[C@@H]1/C(=C\OC)C(=O)OC` [PAYN, paynantheine, reference compound], the “Binding pKi” value in series [1] is 5.5 ± 0.1 (5); in series [7] it was 6.3 ± 0.1 (4); in series [14], 5.3 ± 0.1 (5). Besides, the figures for the inhibition constant Ki in [1], in series [7] (read-out: Binding Ki) and in [14] were 4000 nM, 52 nM and 7820 nM, respectively. Also, the seizure activity entry is reported as “not showing overt signs of seizure activity” in series [2] (10 mg·kg^−1) and “induced seizures” in series [2] (30 mg·kg^−1). The “seizure activity in δOP KO mice” value in [3] is recorded as “still present in δOP KO mice”. In series [4], the “conditioned place preference, brief paradigm” value is “induces conditioned place aversion (CPA)”. In series [4] (four conditioning sessions each for drug and vehicle), the “conditioned place preference, extended protocol” value is “does not produce place preference”. Also, in series [5], the “alcohol intake, in words” value was “reduce alcohol intake”. Moreover, the “cAMP α” value in series [6] came to 100 ± 0; in series [8], 64 ± 13; in series [9] it was 95 ± 5. The IC50 was found to be 4080 nM in series [6], 3550 nM in [8] and 7430 nM in series [9]. The “cAMP pIC50” value was “*5.4 ± 0.1 (5)” in series [6], “*5.6 ± 0.2 (4)” in [8] and “*5.3 ± 0.2 (4)” in [9]. For the same compound, in series [10], the “hyperlocomotion (previous reports)” value was “without causing hyperlocomotion”. In [11], the “ethanol consumption in δOP KO mice, in words” value is “did not significantly decrease ethanol consumption; also recorded: alcohol consumption was not significantly altered”. Besides, the “block of morphine analgesia (antagonist mode)” value in series [12] (10 mg·kg^−1, then morphine 6 mg·kg^−1 s.c. 10 minutes later) is on record as “did not produce antinociception (paired, two-tailed t-test, t=0.6193, df=9, p=0.5511) or block morphine analgesia”. Further, in series [12] (10 mg·kg^−1, 30 minutes after drug), the “antinociception (agonist mode)” value was “did not produce antinociception”. In addition, the “ambulation / locomotor activity” value in [13] is listed as “a trend towards decreased locomotor activity”. The “alcohol intake, in words (previous reports)” value in series [15] (listed as Paynantheine) was “decrease alcohol intake”; in series [15] (listed as paynantheine), “significant reduction”. In [15], the “alcohol consumption, in words (previous reports)” value was “decrease alcohol consumption”.
As to `CC[C@@H]1CN2CC[C@@]3(O)C(=Nc4cccc(OC)c43)[C@@H]2C[C@@H]1/C(=C\OC)C(=O)OC` [7-OH MITRA, 7-hydroxymitragynine, reference compound], in series [1], the “Binding pKi” value is given as 6.9 ± 0.1 (4) and the inhibition constant (Ki) amounted to 14 nM. In addition, the “alcohol intake, in words” value in series [5] was “reduce alcohol intake”. For the same compound, in series [6], the “cAMP α” value was found to be 84 ± 3, the IC50 was 16 nM and the “cAMP pIC50” value is listed as 7.8±0.1. Also, in [8], the “cAMP α” value is 80 ± 8, the IC50 is 960 nM and the “cAMP pIC50” value is recorded as “*5.7 ± 0.2 (8)”. Also, in series [9], the “cAMP pIC50” value is on record as “*6.2 ± 0.3 (9)”, the “cAMP α” value is recorded as 77 ± 5 and the IC50 is 1040 nM. The “hyperlocomotion (previous reports)” value in [10] was “caused both CPP and hyperlocomotion”. Besides, in [16], the “conditioned place preference (previous report)” value is “caused both CPP and hyperlocomotion”. For the same compound, in series [17], the “β-arrestin 2 pEC50” value is recorded as 6.4 ± 0.3 (6). Moreover, the “β-arrestin 2 α” value in series [17] (normalized to positive control Leu-Enk) was found to be 14 ± 1. Further, in series [14], the “Binding pKi” value is recorded as 6.7 ± 0.1 (4) and the Ki amounted to 19 nM. Further, in series [15], the “alcohol consumption, in words (previous reports)” value is on record as “decrease alcohol consumption”.
As for `C[C@@H](NC(=O)[C@@H](N)Cc1ccc(O)cc1)C(=O)NCC(=O)N(C)[C@@H](Cc1ccccc1)C(=O)NCCO` [DAMGO, (2S)-2-[[2-[[(2R)-2-[[(2S)-2-Amino-3-(4-hydroxyphenyl)propanoyl]amino]propanoyl]amino]acetyl]-methylamino]-N-(2-hydroxyethyl)-3-phenylpropanamide, reference compound], in series [18], the “β-arrestin 2 α” value was 100. In series [6], the “cAMP α” value is listed as 100.
With `CC[C@@H]1CN2CCc3c([nH]c4cccc(OC)c34)[C@H]2C[C@@H]1/C(=C\OC)C(=O)OC` [SPECIO, speciociliatine], in series [1], the “Binding pKi” value is given as 6.2 ± 0.1 (4) and the Ki was 590 nM. Also, in [19] (30 mg/kg i.p.), the “death and seizures in the rotarod assay” value is recorded as “one δOP KO mouse died after experiencing severe, level 5-6 seizures”. For the same compound, in [19] (30 mg·kg^−1 i.p.), the “rotarod performance, in words” value is reported as “The same effect was observed in δOP KO mice; also recorded: significantly impairs motor incoordination; also recorded: significantly decreased time spent on the rod”. Moreover, the “ethanol consumption, in words” value in [5] (30 mg·kg^−1 (7-hydroxypaynantheine s.c., speciociliatine i.p.), WT male mice) was “significantly decreased ethanol consumption; also recorded: significant and sharp decrease in alcohol consumption”. Also, in series [5] (30 mg·kg^−1, WT mice), the “average decrease of ethanol consumption” value came to 2.5 ± 0.3 g/kg and the “percent reduction of ethanol consumption” value stood at 90±3%. The “rotarod performance (time spent on the rod), in words” value in [20] is “significantly reduced the ability of treated wildtype mice to perform in the rotarod assessment; also recorded: significantly impairs motor incoordination; also recorded: significantly decreased time spent on the rod”. Moreover, the “time of full recovery on rotarod” value in series [20] (post-injection) is 120 min. In addition, the “β-arrestin2 recruitment, in words” value in series [17] is “no β-arrestin2 recruitment was detected”. Moreover, the “β-arrestin2 recruitment, in words” value in [21] is reported as “no β-arrestin2 recruitment was detected”. In addition, in series [14], the “δOP binding, in words” value is given as “displayed binding at the δOP”; the “Binding pKi” value came out at 5.4±0.1; the inhibition constant (Ki) was determined as 4340 nM.

(Values after patent publication US20230250098A1 (priority 2021, published 2023).)
